From publication PMC5405701 (ChemMedChem, 2017) come the findings set out here.

Like-named read-outs stand apart in the source and are kept apart here. Some results are limits rather than exact numbers.

As a reminder, the inhibition is the percentage by which the read-out fell short of the control. The EC50 is the concentration at which the effect is half-maximal.

The target of test [1] is human ERβ ligand binding domain (LBD) (Homo sapiens, UniProt Q92731). Put plainly: competitive fluorometric. Conditions: for β/α: ratio of RBA ERβ to RBA ERα.
Chain of human ERβ ligand binding domain (LBD) (Q92731 264-498 limits assumed): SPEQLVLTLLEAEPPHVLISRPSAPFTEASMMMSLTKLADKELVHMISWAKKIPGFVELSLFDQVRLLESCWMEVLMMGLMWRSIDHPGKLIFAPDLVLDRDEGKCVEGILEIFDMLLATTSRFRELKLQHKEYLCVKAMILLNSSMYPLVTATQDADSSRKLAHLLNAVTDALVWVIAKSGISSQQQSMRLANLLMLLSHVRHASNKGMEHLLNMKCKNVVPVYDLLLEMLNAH
A further test deals with ERβ (Homo sapiens, UniProt Q92731). Put plainly: cell-based. Conditions: for Emax: HEK-293T, 24 h, read-out: Agonist Mode ERβ Eff (%E2); for transcriptional activity profile on ERβ: reporter gene assay, HEK293T. It counts as cell-based. (A reporter such as luciferase makes a cellular process visible.)
Chain of ERβ (Q92731 whole entry): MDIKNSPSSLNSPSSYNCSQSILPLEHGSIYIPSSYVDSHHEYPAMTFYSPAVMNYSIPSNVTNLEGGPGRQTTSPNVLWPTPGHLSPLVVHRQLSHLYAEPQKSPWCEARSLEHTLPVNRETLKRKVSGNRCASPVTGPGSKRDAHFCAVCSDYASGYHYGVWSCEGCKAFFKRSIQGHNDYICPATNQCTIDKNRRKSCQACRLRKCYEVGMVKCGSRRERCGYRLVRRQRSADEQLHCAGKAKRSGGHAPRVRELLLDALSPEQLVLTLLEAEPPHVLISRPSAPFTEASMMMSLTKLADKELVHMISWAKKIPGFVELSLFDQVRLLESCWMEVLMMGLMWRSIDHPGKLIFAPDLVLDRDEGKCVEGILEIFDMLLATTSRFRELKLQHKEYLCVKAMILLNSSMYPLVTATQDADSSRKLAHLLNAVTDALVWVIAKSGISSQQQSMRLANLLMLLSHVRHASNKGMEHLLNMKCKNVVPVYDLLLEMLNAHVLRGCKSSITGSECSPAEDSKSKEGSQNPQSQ
The next test addresses ERα (Homo sapiens, UniProt P03372). Put plainly: cell-based. The conditions noted are these: for Agonist Mode ERα Eff (%E2): maximal response as percentage of response to 10^−8 M E2, HEK293T; for transcriptional activity profile on ERα: reporter gene assay. It counts as cell-based.
For test [2], the system named is MCF-7 breast cancer cells. Briefly: antiproliferative activity, MTT assay, MCF-7. Conditions: Homo sapiens, MCF7, 72 h, read-out: MCF-7 Inhibition (%).

Chain of ERα (P03372 whole entry): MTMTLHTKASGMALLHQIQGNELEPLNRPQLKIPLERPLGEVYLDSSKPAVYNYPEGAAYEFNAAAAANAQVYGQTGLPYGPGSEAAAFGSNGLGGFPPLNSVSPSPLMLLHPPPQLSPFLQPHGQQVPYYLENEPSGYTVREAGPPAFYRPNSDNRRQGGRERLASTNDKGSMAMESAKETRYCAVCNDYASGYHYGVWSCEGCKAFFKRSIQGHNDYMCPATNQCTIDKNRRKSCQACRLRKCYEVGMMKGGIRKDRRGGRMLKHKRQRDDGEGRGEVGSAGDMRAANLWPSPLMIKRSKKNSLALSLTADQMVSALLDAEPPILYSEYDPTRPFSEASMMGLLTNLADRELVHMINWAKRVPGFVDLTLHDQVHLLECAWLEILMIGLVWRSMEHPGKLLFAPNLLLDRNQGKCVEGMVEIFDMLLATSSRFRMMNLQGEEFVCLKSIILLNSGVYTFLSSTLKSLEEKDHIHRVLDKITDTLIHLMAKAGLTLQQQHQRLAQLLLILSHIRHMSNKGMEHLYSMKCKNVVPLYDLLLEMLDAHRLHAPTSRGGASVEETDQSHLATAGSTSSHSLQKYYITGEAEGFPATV

Consider `Oc1ccc(-c2ccc(-c3ccc(O)cc3)[se]2)cc1` [Compound 2a, 2,5-Bis(4-hydroxyphenyl)selenophene], for which, in test [1], the β/α is reported as 4.70. Moreover, on ERβ, the Emax stood at 11 ± 4% and the “transcriptional activity profile on ERβ” value is recorded as “partial antagonist”. In addition, the “Agonist Mode ERα Eff (%E2)” value at ERα is 16 ± 2 %E2. Also, on ERα (HEK293T), the “transcriptional activity profile on ERα” value is “partial antagonist”. Besides, the inhibition at 10 µM in test [2] came to 0%.
On to `Cc1cc(O)ccc1-c1ccc(-c2ccc(O)cc2C)[se]1` [Compound 2b, 2,5-Bis(4-hydroxy-2-methylphenyl)selenophene], for which the β/α in test [1] is listed as 1.98. Also, at ERβ, the EC50 was determined as 79 nM, the Emax was 82 ± 7% and the “transcriptional activity profile on ERβ” value was “agonist”. Also, at ERα, the EC50 came to 1360 nM and the “Agonist Mode ERα Eff (%E2)” value turned out to be 157 ± 12 %E2. Moreover, the “efficacy on ERα, times greater than that of estradiol” value on ERα (agonist mode) amounted to 1.5 times. Moreover, the “transcriptional activity profile on ERα” value at ERα (HEK293T) is reported as “superagonist”. Moreover, the inhibition at 10 µM in test [2] worked out at 3.4%.
As for `Cc1cc(-c2ccc(-c3ccc(O)c(C)c3)[se]2)ccc1O` [Compound 2c, 2,5-Bis(4-hydroxy-3-methylphenyl)selenophene], the β/α in test [1] is more than 94. At ERβ, the Emax came out at 24 ± 3% and the “transcriptional activity profile on ERβ” value was “inactive”. The “Agonist Mode ERα Eff (%E2)” value at ERα amounted to 33 ± 6 %E2. The “transcriptional activity profile on ERα” value on ERα (HEK293T) was “inactive”. Also, in test [2], the inhibition at 10 µM amounted to 9.3%.
In the case of `Cc1cc(-c2ccc(-c3cc(C)c(O)c(C)c3)[se]2)cc(C)c1O` [Compound 2d, 2,5-Bis(4-hydroxy-3,5-dimethylphenyl)selenophene], the β/α in test [1] is listed as more than 121. In addition, on ERβ, the Emax stood at 38 ± 6% and the “transcriptional activity profile on ERβ” value is “inactive”. Moreover, the “Agonist Mode ERα Eff (%E2)” value on ERα was 12 ± 4 %E2. Also, at ERα (HEK293T), the “transcriptional activity profile on ERα” value was “inactive”. Also, the inhibition at 10 µM in test [2] worked out at 0%.
Regarding `Cc1cc(O)cc(C)c1-c1ccc(-c2c(C)cc(O)cc2C)[se]1` [Compound 2e, 2,5-Bis(4-hydroxy-2,6-dimethylphenyl)selenophene], the β/α in test [1] was determined as 1.00. In addition, at ERβ, the EC50 was found to be 434 nM and the Emax came to 60 ± 4%. In addition, at ERα, the “Agonist Mode ERα Eff (%E2)” value was −7 ± 3 %E2. In addition, the inhibition at 10 µM in test [2] was 19.3%.
Regarding `Oc1ccc(-c2ccc(-c3ccc(O)cc3F)[se]2)c(F)c1` [Compound 2f, 2,5-Bis(2-fluoro-4-hydroxyphenyl)selenophene], the β/α in test [1] is 4.11. Also, the “fold better binding to ERβ than 2a” value in test [1] (relative to 2a) is on record as 8 fold. On ERβ, the EC50 turned out to be 170 nM and the Emax is 71 ± 1%. In addition, at ERα, the EC50 was found to be 230 nM and the “Agonist Mode ERα Eff (%E2)” value worked out at 68 ± 2 %E2. Moreover, at ERα (agonist mode, relative to 2b), the “ERα agonist potency, fold more potent than 2b” value is “about 6 fold”. For the same compound, the “transcriptional activity profile on ERα” value at ERα (HEK293T) was “full ERα agonist”. In test [2], the inhibition at 10 µM turned out to be 10.5%.
In the case of `Oc1ccc(-c2ccc(-c3ccc(O)cc3Cl)[se]2)c(Cl)c1` [Compound 2g, 2,5-Bis(2-chloro-4-hydroxyphenyl)selenophene], in test [1], the β/α was found to be 2.07. In addition, the Emax on ERβ amounted to 14 ± 5%. For the same compound, on ERα, the “Agonist Mode ERα Eff (%E2)” value is reported as 44 ± 13 %E2. For the same compound, at ERα (read-out: Agonist Mode ERα EC50, compound alone up to 10^−5 M, HEK293T), the concentration for a half-maximal effect (EC50) amounted to 1280 nM. Further, the inhibition at 10 µM in test [2] is 19.6%.
For the compound `Oc1ccc(-c2ccc(-c3ccc(O)c(Cl)c3)[se]2)cc1Cl` [Compound 2h, 2,5-Bis(3-chloro-4-hydroxyphenyl)selenophene], the β/α in test [1] was 5.10. Moreover, at ERβ, the Emax worked out at 22 ± 8%. At ERα, the EC50 came out at 40 nM and the “Agonist Mode ERα Eff (%E2)” value is given as 49 ± 3 %E2. Moreover, at ERα (HEK293T), the “transcriptional activity profile on ERα” value was “partial agonist”. For the same compound, in test [2], the inhibition at 10 µM stood at 5.3%.
Turning to `Oc1ccc(F)c(-c2ccc(-c3cc(O)ccc3F)[se]2)c1` [Compound 2i, 2,5-Bis(2-fluoro-5-hydroxyphenyl)selenophene], in test [1], the β/α was 0.90. Further, on ERβ, the midpoint of the response, the EC50, lay at 130 nM; the Emax was found to be 55 ± 5%; the “transcriptional activity profile on ERβ” value is on record as “partial agonist”. The “Agonist Mode ERα Eff (%E2)” value at ERα was 25 ± 8 %E2. Also, in test [2], the inhibition at 10 µM worked out at 17.9%.
On to `Oc1cc(-c2ccc(-c3ccc(F)c(O)c3)[se]2)ccc1F` [Compound 2j, 2,5-Bis(4-fluoro-5-hydroxyphenyl)selenophene], for which the β/α in test [1] came to 3.37. Moreover, at ERβ, a half-maximal response (EC50) required 150 nM, the Emax turned out to be 42 ± 10% and the “transcriptional activity profile on ERβ” value is listed as “partial agonist”. Also, the “Agonist Mode ERα Eff (%E2)” value at ERα came to 25 ± 8 %E2. Also, the inhibition at 10 µM in test [2] came out at 4.4%.
Consider `Oc1ccc(-c2c[se]cc2-c2ccc(O)cc2)cc1` [Compound 4a, 3,4-Bis(4-hydroxyphenyl)selenophene], for which, in test [1], the β/α came to 6.28. Also, on ERβ, the Emax is 16 ± 7% and the “transcriptional activity profile on ERβ” value is “antagonist”. Moreover, the “Agonist Mode ERα Eff (%E2)” value at ERα stood at 7 ± 3 %E2. Besides, the inhibition at 10 µM in test [2] was determined as 0%.
Turning to `Cc1cc(O)ccc1-c1c[se]cc1-c1ccc(O)cc1C` [Compound 4b, 3,4-Bis(4-hydroxy-2-methylphenyl)selenophene], the β/α in test [1] was 24.81. Further, at ERβ, the EC50 was 34 nM and the Emax was 62 ± 8%. At ERα, the “Agonist Mode ERα Eff (%E2)” value turned out to be 19 ± 4 %E2. For the same compound, the inhibition at 10 µM in test [2] was determined as 0%.
For the compound `Cc1cc(-c2c[se]cc2-c2ccc(O)c(C)c2)ccc1O` [Compound 4c, 3,4-Bis(4-hydroxy-3-methylphenyl)selenophene], the β/α in test [1] stood at 0.87. On ERβ, the EC50 worked out at 1150 nM and the Emax was 54 ± 10%. In addition, on ERα, the EC50 stood at 320 nM and the “Agonist Mode ERα Eff (%E2)” value was 32 ± 8 %E2. Further, in test [2], the inhibition at 10 µM was 0%.
In the case of `Oc1ccc(-c2c[se]cc2-c2ccc(O)c(F)c2)cc1F` [Compound 4d, 3,4-Bis(3-fluoro-4-hydroxyphenyl)selenophene], the β/α in test [1] was 2.67. Also, the Emax at ERβ is 21 ± 3%. Moreover, the “Agonist Mode ERα Eff (%E2)” value on ERα worked out at 21 ± 6 %E2. Moreover, the inhibition at 10 µM in test [2] is 0%.
On the same counts, the results for `Oc1ccc(-c2c[se]cc2-c2ccc(O)cc2F)c(F)c1` [Compound 4e, 3,4-Bis(2-fluoro-4-hydroxyphenyl)selenophene] are 2.19, 17 ± 2%, 35 ± 5 %E2 and 0%.
`Cc1cc(-c2cc(Br)c(-c3ccc(O)c(C)c3)[se]2)ccc1O` [Compound 6c, 3-Bromo-2,5-bis(4-hydroxy-3-methylphenyl)selenophene]: in test [1], the β/α was found to be 4.40. Moreover, on ERβ, the midpoint of the response, the EC50, lay at 441 nM and the Emax worked out at 46 ± 1%. For the same compound, at ERα, the “Agonist Mode ERα Eff (%E2)” value is given as −3 ± 1 %E2. For the same compound, the inhibition at 10 µM in test [2] amounted to 26.1%.
In the case of `Cc1cc(-c2cc(Br)c(-c3cc(C)c(O)c(C)c3)[se]2)cc(C)c1O` [Compound 6d, 3-Bromo-2,5-bis(4-hydroxy-3,5-dimethylphenyl)selenophene], the β/α in test [1] was found to be 0.43. The Emax at ERβ was found to be 15 ± 6%. Moreover, on ERα, the “Agonist Mode ERα Eff (%E2)” value turned out to be 16 ± 4 %E2. Besides, the inhibition at 10 µM in test [2] was found to be 26.5%.
On the same counts, the results for `Oc1ccc(-c2cc(Br)c(-c3ccc(O)c(Cl)c3)[se]2)cc1Cl` [Compound 6e, 3-Bromo-2,5-bis(3-chloro-4-hydroxyphenyl)selenophene] are 0.25, 27 ± 2%, −23 ± 3 %E2 and 11.3%.
For `Oc1cc(-c2cc(Br)c(-c3ccc(F)c(O)c3)[se]2)ccc1F` [Compound 6f, 3-Bromo-2,5-bis(4-fluoro-5-hydroxyphenyl)selenophene], the β/α in test [1] worked out at 0.28. In addition, at ERβ, the midpoint of the response, the EC50, lay at 300 nM and the Emax was determined as 31 ± 7%. For the same compound, on ERα, a half-maximal effect (EC50) was put at 120 nM and the “Agonist Mode ERα Eff (%E2)” value was 226 ± 28 %E2. Also, the “efficacy on ERα, times greater than that of estradiol” value at ERα (agonist mode) is given as 2.2 times. Further, the “transcriptional activity profile on ERα” value on ERα (HEK293T) was “superagonist”. Also, the inhibition at 10 µM in test [2] worked out at 0%.
In the case of `Oc1ccc(-c2cc(Br)c(-c3ccc(O)cc3F)[se]2)c(F)c1` [Compound 6g, 3-Bromo-2,5-bis(2-fluoro-4-hydroxyphenyl)selenophene], the β/α in test [1] is given as 1.30. Moreover, at ERβ, the Emax was 50 ± 3%. The “Agonist Mode ERα Eff (%E2)” value at ERα came out at 73 ± 9 %E2. The inhibition at 10 µM in test [2] worked out at 8.1%.
As to `Oc1ccc(-c2cc(-c3ccc(O)cc3)c(-c3ccc(O)cc3)[se]2)cc1` [Compound 8a, 2,3,5-Tris(4-hydroxyphenyl)selenophene], the β/α in test [1] worked out at 1.15. Moreover, on ERβ, the Emax stood at 12 ± 3% and the “transcriptional activity profile on ERβ” value is “antagonist”. Also, the “Agonist Mode ERα Eff (%E2)” value at ERα is −4 ± 3 %E2. Moreover, the “transcriptional activity profile on ERα” value on ERα (HEK293T) is listed as “antagonist”. The inhibition at 10 µM in test [2] came out at 29.6%.
For the compound `Cc1cc(-c2cc(-c3ccc(O)c(C)c3)c(-c3ccc(O)c(C)c3)[se]2)ccc1O` [Compound 8b, 2,3,5-Tris(4-hydroxy-3-methylphenyl)selenophene], the β/α in test [1] came out at 9.92. In addition, at ERβ, the response was half-maximal at 33 nM (EC50) and the Emax is 77 ± 8%. Moreover, at ERα, the EC50 worked out at 320 nM and the “Agonist Mode ERα Eff (%E2)” value is 112 ± 29 %E2. In addition, the “transcriptional activity profile on ERα” value at ERα (HEK293T) is recorded as “superagonists”. Moreover, the inhibition at 10 µM in test [2] amounted to 16.6%.
